Reference: patent publication US12103943B2, “Development of novel clofarabine analogs for cancer therapy” (Southern Research Institute, priority 2021, dated 2024)
“Also recorded” adds a separate entry of the source. Where two headings read alike, the source gives them in different places.

Tests used:
[1] = tested on: BT549; assay: Cell viability after 72-hour incubation, CellTiter-Glo 2.0; type: cell-based; conditions: Homo sapiens, read-out: IC50 (μM) BT549
Description: (§1) Select tumor lines representative of triple negative breast cancer (MDA-MB-231 and BT549) were identified for testing of efficacy of compounds. Assessment of compound efficacy was determined by a test of cell viability after 72-hour incubation with compound using CellTiter-Glo 2.0 (Promega). […] Selectivity index is defined as the ratio of the calculated IC50 in normal epithelial lines to the calculated IC50 in a cancerous cell line. For CellTiter-Glo cells are plated in a 96-well, opaque, flat-bottomed black plate. Cells are seeded at 5,000 cells per well and allowed to incubate for 6 hours to allow for attachment. Cells are then dosed in a 12-point serial dilution spanning a range of 50 μM to 25 nM. Clofarabine is used as a positive control for all cell lines, and each plate contains media only, and DMSO controls as negatives for each compound tested. Final volume for both cells and compound should be 100 uL. After 72-hour exposure to compound, plates are removed from the incubator and allowed to equilibrate to room temperature for 30 minutes. An equal volume of CellTiter-Glo 2.0 reagent is added to media present in well (100 uL). Plates are then placed onto an orbital shaker and allow to incubate while shaking for 10 to 15 minutes. Raw luminescence readings are obtained. Log transformations of the background subtracted data are analyzed using a 4PL-fit model, and IC50 values are calculated based on the sigmoidal fit of the non-linear regression model.

[2] = tested on: MDA-MB-231; assay: as above; type: cell-based; conditions: Homo sapiens, read-out: IC50 (μM) MDA-MB-231
Description: as §1

[3] = Basic dose escalation test for tolerance of drug concentration; type: in vivo; conditions: dose escalation 25, 40, 55 mg/kg, Q1D×5 with 2-day washout, B6C3F1/N female mice, FIG. 2
Description: Briefly, a cohort of B6C3F1/N female mice were split into three dosing arms: Control (N=2), Clofarabine (N=3), and compound 5 (N=3). The dosing schedule was set based on previous and historical dosing with nucleosides, Q1D×5 with a 2-day washout period before dose escalation. The selected dose concentrations were 25 mg/kg, 40 mg/kg, and 55 mg/kg. Blood was collected weekly by submandibular bleed for ALT and AST measurements, and at necropsy major organs were examined for gross toxicity.

[4] = tested on: MDA-MB-231 cells; assay: In vivo efficacy in a solid tumor, triple negative breast cancer model; conditions: 25 mg/kg intraperitoneal for 2 weeks, s.c. MDA-MB-231 tumors in athymic nude mice, FIG. 1
Description: Athymic nude mice (Crl:Nu(NCr)-Fox^1nu; Charles River) were injected s.c. in the right flank with 100 uL MDA-MB-231 cells in 1:1 RPMI 1640 and Cultrex BME Type 3 (1×10^6 cells/mouse). Tumors were allowed to grow until 500 mm^3 (Tumor Volume= […]×Length×Width^2), at which point mice were dosed […] for 2 weeks by intraperitoneal injection with either vehicle (N-Methyl-2-Pyrrolidone (NMP), Polyethylene glycol 400 (PEG400), and saline at a ratio of 1:2:2 v/v/v), 25 mg/kg of Clofarabine, or 25 mg/kg of compound 5. Tumor volumes were measured twice weekly, and bodyweight was measured daily during the dosing period. This was a pilot test to determine anti-tumor growth activity, so regrowth was not measured and the study was terminated two days after the final dose.

[5] = BT-549, BT549 triple negative breast cancer cells, 72-hour exposure, CellTiter-Glo 2.0, 50 μM to 25 nM
[6] = MDA-MB-231 triple negative breast cancer cells, 72-hour exposure, CellTiter-Glo 2.0, 50 μM to 25 nM

SMILES	IC50 [1, 5]	IC50 [2, 6]	further results
COC(=O)[C@H](C)NP(=O)(OC[C@H]1O[C@@H](n2cnc3c(N)nc(C(F)(F)F)nc32)C(F)C1O)Oc1ccccc1 (mixture of isomers) [Compound 12, methyl (2S)-2-[[phenoxy-[[rac-(2R,3R,4S,5R)-5-[6-amino-2-(trifluoromethyl)purin-9-yl]-4-fluoro-3-hydroxy-tetrahydrofuran-2-yl]methoxy]phosphoryl]amino]propanoate]			IC50 ([1]; BT-549, 72 h): 13.1 µM; IC50 ([2]; MDA-MB-231, 72 h): 13.7 µM
Nc1nc(Cl)nc2c1ncn2[C@@H]1O[C@H](CO)[C@@H](O)[C@@H]1F [Clofarabine, 2-chloro-2′-fluoro-2′-deoxy-9-β-D-arabinofuranosyladenine]			tolerance of drug concentration (toxicity, survival) [3]: Toxicity was seen immediately following the 55 mg/kg dose
Nc1nc(C(F)(F)F)nc2c1ncn2[C@@H]1O[C@H](CO)[C@@H](O)[C@@H]1F [Compound 5, (2R,3R,4S,5R)-5-[6-amino-2-(trifluoromethyl)purin-9-yl]-4-fluoro-2-(hydroxymethyl)tetrahydrofuran-3-ol]	0.018 µM	4.16 µM	tumor volume / anti-tumor growth activity [4]: effectively reduces tumor volume; also recorded: anti-growth efficacy
CC(C)Nc1nc(C(F)(F)F)nc2c1ncn2[C@@H]1O[C@H](CO)[C@@H](O)[C@@H]1F [Compound 7a, (2R,3R,4S,5R)-4-fluoro-2-(hydroxymethyl)-5-(6-(isopropylamino)-2-(trifluoromethyl)purin-9-yl)tetrahydrofuran-3-ol]		20.5 µM	
CCC(CC)Nc1nc(C(F)(F)F)nc2c1ncn2[C@@H]1O[C@H](CO)[C@@H](O)[C@@H]1F [Compound 7b, (2R,3R,4S,5R)-5-[6-(1-ethylpropylamino)-2-(trifluoromethyl)purin-9-yl]-4-fluoro-2-(hydroxymethyl)tetrahydrofuran-3-ol]	> 50 µM	≥ 67 µM	
OC[C@H]1O[C@@H](n2cnc3c(NC4CC4)nc(C(F)(F)F)nc32)[C@@H](F)[C@@H]1O [Compound 7c, (2R,3R,4S,5R)-5-[6-(cyclopropylamino)-2-(trifluoromethyl)purin-9-yl]-4-fluoro-2-(hydroxymethyl)tetrahydrofuran-3-ol]		2.58 µM	
CC(Nc1nc(C(F)(F)F)nc2c1ncn2[C@@H]1O[C@H](CO)[C@@H](O)[C@@H]1F)C1CC1 (stereo partly drawn) [Compound 7d, (2R,3R,4S,5R)-5-[6-(1-cyclopropylethylamino)-2-(trifluoromethyl)purin-9-yl]-4-fluoro-2-(hydroxymethyl)tetrahydrofuran-3-ol]	15.1 µM	20.5 µM	
OC[C@H]1O[C@@H](n2cnc3c(NC4CCC4)nc(C(F)(F)F)nc32)[C@@H](F)[C@@H]1O [Compound 7e, (2R,3R,4S,5R)-5-[6-(cyclobutylamino)-2-(trifluoromethyl)purin-9-yl]-4-fluoro-2-(hydroxymethyl)tetrahydrofuran-3-ol]	13.8 µM		
CC1(Nc2nc(C(F)(F)F)nc3c2ncn3[C@@H]2O[C@H](CO)[C@@H](O)[C@@H]2F)CCC1 [Compound 7f, (2R,3R,4S,5R)-4-fluoro-2-(hydroxymethyl)-5-[6-[(1-methylcyclobutyl)amino]-2-(trifluoromethyl)purin-9-yl]tetrahydrofuran-3-ol]	13.5 µM	> 50 µM	
OC[C@H]1O[C@@H](n2cnc3c(NC4CCCC4)nc(C(F)(F)F)nc32)[C@@H](F)[C@@H]1O [Compound 7g, (2R,3R,4S,5R)-5-[6-(cyclopentylamino)-2-(trifluoromethyl)purin-9-yl]-4-fluoro-2-(hydroxymethyl)tetrahydrofuran-3-ol]	5.89 µM		
CCCCCCCCCCCC(=O)Nc1nc(C(F)(F)F)nc2c1ncn2[C@@H]1O[C@H](CO)[C@@H](O)[C@@H]1F [Compound 10, N-[9-[(2R,3S,4R,5R)-3-fluoro-4-hydroxy-5-(hydroxymethyl)tetrahydrofuran-2-yl]-2-(trifluoromethyl)purin-6-yl]dodecanamide]		3.19 µM	
CC(C)C(=O)OC[C@H]1O[C@@H](n2cnc3c(N)nc(C(F)(F)F)nc32)[C@@H](F)[C@@H]1O [Compound 15, [(2R,3R,4S,5R)-5-[6-amino-2-(trifluoromethyl)purin-9-yl]-4-fluoro-3-hydroxy-tetrahydrofuran-2-yl]methyl 2-methylpropanoate]	> 50 µM	7.12 µM	
CC[C@@H](C)[C@@H](N)C(=O)OC[C@H]1O[C@@H](n2cnc3c(N)nc(C(F)(F)F)nc32)[C@@H](F)[C@@H]1O [Compound 18, [(2R,3R,4S,5R)-5-[6-amino-2-(trifluoromethyl)purin-9-yl]-4-fluoro-3-hydroxy-tetrahydrofuran-2-yl]methyl (2R,3R)-2-amino-3-methyl-pentanoate]	> 50 µM	11.4 µM	
